SMILES strings stand for the structures.

Assay [1] concerns the target T1, IRAK4 (Homo sapiens, UniProt Q9NWZ3).
T1 sequence (Q9NWZ3 1-460): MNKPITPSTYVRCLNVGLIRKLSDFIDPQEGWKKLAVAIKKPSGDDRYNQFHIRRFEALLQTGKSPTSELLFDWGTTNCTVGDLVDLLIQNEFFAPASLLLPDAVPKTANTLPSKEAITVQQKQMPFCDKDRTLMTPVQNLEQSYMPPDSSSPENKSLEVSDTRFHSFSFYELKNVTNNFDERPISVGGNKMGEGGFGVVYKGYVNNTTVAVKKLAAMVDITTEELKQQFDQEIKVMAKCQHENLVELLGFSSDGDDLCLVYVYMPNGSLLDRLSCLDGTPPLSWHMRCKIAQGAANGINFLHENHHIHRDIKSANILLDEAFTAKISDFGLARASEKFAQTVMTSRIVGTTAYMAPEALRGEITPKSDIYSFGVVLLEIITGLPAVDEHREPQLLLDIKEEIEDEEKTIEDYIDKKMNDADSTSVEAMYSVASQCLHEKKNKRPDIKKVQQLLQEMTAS
The assay can be described thus: 2-hour 10 μM ATP Biochemical Assay (MesoScale Detection format; IRAK4 phosphorylation of biotin labeled IRAK1 activation loop peptide). The note with it: 0.1 nM IRAK4. The procedure:
Compounds of the invention were assessed for their ability to inhibit IRAK4 activity. The inhibitory properties of the compounds of the invention described herein can be evidenced by testing in any one of the following assays.
The 2-hour 10 μM ATP Biochemical Assay employs a MesoScale Detection (MSD) format. The kinase reaction is based on the IRAK4 phosphorylation of a biotin labeled peptide (IRAK1 activation loop sequence 360-389).
The kinase reaction in 30 μl is carried out in wells of a 384 well polypropylene assay plate, with 0.1 nM IRAK4, 1.6 μM of biotinylated peptide substrate and 10 μM ATP in 50 mM Hepes, pH 7.5, 60 mM NaCl, 5 mM MgCl2, 0.25 mM MnCl2, 2 mM DTT, 0.01% BSA, and 1% DMSO (from compound DMSO stocks), for 2 hour at room temperature. The activity is quenched with 11 μl of 70 mM EDTA, pH 8.
To detect the phosphorylated biotinylated peptide substrate, 30 μl of the quenched reaction mixture is added to equivalent wells of a 384 well streptavidin coated MesoScale plate (Meso Scale Discovery #L21SA-1). After a 1 hour incubation of the plate for 1 hour at room temperature with gentle mixing, the plate wells are washed 3 times with 50 mM Tris, pH 7.5, 150 mM NaCl, 0.02% Tween-20.
A 25 μl volume of 1:500 anti-P-Threonine Rabbit polyclonal Antibody plus 1:500 Goat-anti-Rabbit Sulfo Tag Antibody (Meso Scale Discovery R32AB-1) in 50 mM Tris, pH 7.5, 150 mM NaCl, 0.02% Tween-20 plus 2% BSA is then added to each well. After a 1-hour incubation of the plate for 1 hour at room temperature with gentle mixing, the plate wells are washed, 3 times with 50 mM Tris, pH 7.5, 150 mM NaCl, 0.02% Tween-20. A 40 μl volume of 2× MSD Read Buffer (Meso Scale Discovery R92TC-1) is added to each well, and the plate is read immediately in an MSD Plate Reader (Meso Scale Discovery).

Assay [2] concerns the target T1, IRAK4. The assay can be described thus: biochemical.
Setting [3] is: IRAK4 Biochemical Assay (1 mM ATP, 2 h) IC50 (μM), 1 mM ATP, 2 h, 100 pM IRAK4.

By IC50 is commonly meant the concentration that inhibits the measured activity by half. Read a high IC50 as weaker potency. As for `COc1cc2nc(C3CC(OC)C3)cn2cc1C(=O)Nc1cccc(C(F)(F)F)n1` (stereo not shown) [Example 36], the IC50 in assay [1] was found to be 8 nM; in assay [2] (setting [3]), 0.0262 µM.

Regarding `COc1cc2nc(C3CCOCC3)cn2cc1C(=O)Nc1cccc2c1CCC2` [Example 121], the IC50 amounted to 3 nM in assay [1] and 0.0092 µM in assay [2].

For the compound `CCOc1cc2nc(C[C@@H]3CCOC3)cn2cc1C(=O)Nc1cccc(C(F)F)n1` [Example 65, N-[6-(difluoromethyl)-2-pyridyl]-7-ethoxy-2-[[(3R)-tetrahydrofuran-3-yl]methyl]imidazo[1,2-a]pyridine-6-carboxamide], the IC50 is 1 nM in assay [1] and 0.0015 µM in assay [2].

Consider `COc1cc2nc(C3CCOCC3)cn2cc1C(=O)Nc1cccc(C(F)(F)F)c1` [Example 158], for which the values for the IC50 in assay [1] and in assay [2] were 8 nM and 0.0257 µM, respectively.

For `COc1cc2nc(CC3CCOC3)cn2cc1C(=O)Nc1cccc(C(F)(F)F)n1` (stereo not shown) [Example 33], the IC50 in assay [1] amounted to 5 nM; in assay [2], 0.014 µM.

In the case of `COc1cccc(NC(=O)c2cn3cc(C4CCOCC4)nc3cc2OC)n1` [Example 21], the results for the IC50 in assay [1] and in assay [2] were 3 nM and 0.0085 µM, respectively.

Take `COc1cc2nc(CC3CCOCC3)cn2cc1C(=O)Nc1cccc(C(F)(F)F)n1` [Example 45]: the IC50 in assay [1] worked out at 13 nM; in assay [2] (setting [3]), 0.0401 µM.

For the compound `COc1cc2nc(C3CCOCC3)cn2cc1C(=O)Nc1cccc(CF)c1` [Example 141], the IC50 in assay [1] came out at 8 nM; in assay [2], 0.0245 µM.

For `COc1cc2nc(C34CC(C#N)(C3)C4)cn2cc1C(=O)Nc1cccc(C(F)(F)F)n1` [Example 37], the IC50 in assay [1] is 9 nM; in assay [2] (setting [3]), 0.0253 µM.

As to `COc1cc2nc(C3CCOCC3)cn2cc1C(=O)Nc1cscc1C` [Example 135], the IC50 in assay [1] was 14 nM; in assay [2], 0.0645 µM.

Consider `COc1cc2nc(C3CCOCC3)cn2cc1C(=O)Nc1cc(F)cc(C(F)F)c1` [Example 169], for which the results for the half-inhibitory concentration (IC50) in assay [1] and in assay [2] were 12 nM and 0.0296 µM, respectively.

Source of the values: patent US20230087118A1, “IMIDAZO[1,2-a][sequence] DERIVATIVES AND THEIR USE IN THE TREATMENT OF DISEASE” (priority 2019, published 2023).
